# Source: patent US9067871B2, “Aminotetraline derivatives, pharmaceutical compositions containing them, and their use in therapy” (ABBVIE DEUTSCHLAND GMBH & CO KG, priority 2009, dated 2015)
# Counter-ions that a name gives are not always drawn. Like-named read-outs stand apart in the source and are kept apart here.
# Experiments:
# [1] = target: human GlyT1c transporter (Homo sapiens (Human), UniProt P48067); assay: Radioligand binding assay using recombinant CHO cell membranes expressing human GlyT1; settings: read-out: radioligand binding Kiapp
# Chain of human GlyT1c transporter (P48067 whole entry): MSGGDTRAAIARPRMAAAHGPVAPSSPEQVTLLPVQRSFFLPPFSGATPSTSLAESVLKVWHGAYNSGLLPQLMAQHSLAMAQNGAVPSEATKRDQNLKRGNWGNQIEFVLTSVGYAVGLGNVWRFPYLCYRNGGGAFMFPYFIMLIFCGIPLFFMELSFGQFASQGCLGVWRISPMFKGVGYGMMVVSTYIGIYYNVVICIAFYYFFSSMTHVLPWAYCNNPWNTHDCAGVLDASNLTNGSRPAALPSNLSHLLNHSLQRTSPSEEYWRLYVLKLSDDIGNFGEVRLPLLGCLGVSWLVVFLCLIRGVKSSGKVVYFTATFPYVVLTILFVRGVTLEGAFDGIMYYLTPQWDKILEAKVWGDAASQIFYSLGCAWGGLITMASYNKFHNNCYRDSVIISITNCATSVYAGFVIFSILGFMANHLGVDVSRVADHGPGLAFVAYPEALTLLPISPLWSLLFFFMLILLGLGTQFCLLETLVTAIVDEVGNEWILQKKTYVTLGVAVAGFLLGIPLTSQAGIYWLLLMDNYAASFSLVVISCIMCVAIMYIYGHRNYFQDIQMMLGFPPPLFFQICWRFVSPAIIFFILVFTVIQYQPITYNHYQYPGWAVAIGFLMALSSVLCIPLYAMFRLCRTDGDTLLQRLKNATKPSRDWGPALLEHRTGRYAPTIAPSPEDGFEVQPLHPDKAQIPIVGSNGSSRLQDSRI
# Excerpt: 2. Radioligand binding assays using recombinant CHO cell membranes expressing human GlyT1: […]
# [2] = target: human GlyT1c (Homo sapiens (Human), UniProt P48067); assay: [3H]-Glycine uptake into recombinant CHO cells expressing human GlyT1; format: cell-based
# Chain of human GlyT1c (P48067 whole entry): as above
# Experimental: 1. [^3H]-Glycine uptake into recombinant CHO cells expressing human GlyT1: Human GlyT1c expressing recombinant hGlyT1c—5_CHO cells were plated at 20,000 cells per well in 96 well Cytostar-T scintillation microplates (Amersham Biosciences) and cultured to sub-confluency for 24 h. […] 80 μl HBSS buffer were added, followed by 10 μl inhibitor or vehicle (10% DMSO) and 10 μl [^3H]-glycine (TRK71, Amersham Biosciences) to a final concentration of 200 nM for initiation of glycine uptake. The plates were placed in a Wallac Microbeta (PerkinElmer) and continuously counted by solid phase scintillation spectrometry during up to 3 hours. Nonspecific uptake was determined in the presence of 10 μM Org24598.
# [3] = human GlyT1c-expressing CHO cell membranes
# [4] = hGlyT1c_5_CHO cells, 200 nM [3H]-glycine
SMILES,"Ki [1, 3] [µM]",further results
"Cc1nc(C)c(S(=O)(=O)NCCOc2ccc3c(c2)C(Cc2cccc(Cl)c2)C(N)CC3)s1 (centres unmarked) [Example 57, 2,4-Dimethyl-thiazole-5-sulfonic acid {2-[7-amino-8-(3-chloro-benzyl)-5,6,7,8-tetrahydronaphthalen-2-yloxy]-ethyl}-amide]",≤ 1,"IC50 [2, 4]: ≤ 10 µM"
"CC(C)(C)OC(=O)NC1CCc2ccc(CN)cc2C1Cc1ccc(Cl)c(Cl)c1 (centres unmarked) [Example 38, tert-Butyl[7-(aminomethyl)-1-(3,4-dichlorobenzyl)-1,2,3,4-tetrahydronaphthalen-2-yl]carbamate]",≤ 100,"IC50 [2, 4]: ≤ 100 µM"
"Cn1cnc(S(=O)(=O)NCCOc2ccc3c(c2)C(Cc2ccc(Cl)c(Cl)c2)C(N)CC3)c1 (centres unmarked) [Example 3, N-(2-(7-Amino-8-(3,4-dichlorobenzyl)-5,6,7,8-tetrahydronaphthalen-2-yloxy)ethyl)-1-methyl-1H-imidazole-4-sulfonamide hydrochloride]",–,Ki [1]: ≤ 0.01 µM; IC50 [2]: ≤ 0.01 µM
"N#Cc1ccc2c(c1)C(Cc1ccc(Cl)c(Cl)c1)C(N)CC2 (centres unmarked) [Example 29, 7-Amino-8-(3,4-dichlorobenzyl)-5,6,7,8-tetrahydronaphthalene-2-carbonitrile trifluoroacetate]",≤ 10,"IC50 [2, 4]: ≤ 100 µM"
"CC(C)S(=O)(=O)NCCOc1ccc2c(c1)C(Cc1ccc(Cl)c(Cl)c1)C(N)CC2 (centres unmarked) [Example 91, Propane-2-sulfonic acid {2-[7-amino-8-(3,4-dichloro-benzyl)-5,6,7,8-tetrahydronaphthalen-2-yloxy]-ethyl}-amide hydrochloride]",≤ 0.1,–
"CN(CCOc1ccc2c(c1)C(Cc1ccc(Cl)c(Cl)c1)C(N1CCCC1)CC2)S(=O)(=O)C1CCC1 (centres unmarked) [Example 94, Cyclobutanesulfonic acid {2-[8-(3,4-dichloro-benzyl)-7-pyrrolidin-1-yl-5,6,7,8-tetrahydronaphthalen-2-yloxy]-ethyl}-methyl-amide hydrochloride]",≤ 0.1,–
"Cn1ccc(S(=O)(=O)NCCOc2ccc3c(c2)C(Cc2cc(F)cc(F)c2)C(NC=O)CC3)c1 (centres unmarked) [Example 271, N-(2-{[8-(3,5-Difluorobenzyl)-7-(formylamino)-5,6,7,8-tetrahydronaphthalen-2-yl]oxy}ethyl)-1-methyl-1H-pyrrole-3-sulfonamide]",≤ 0.1,–
"O=S(=O)(NCc1ccc2c(c1)C(Cc1ccccc1)C(N1CCOCC1)CC2)C1CCC1 (centres unmarked) [Example 261, N-{[8-Benzyl-7-(morpholin-4-yl)-5,6,7,8-tetrahydronaphthalen-2-yl]methyl}cyclobutanesulfonamide]",≤ 1,–
"O=S(=O)(NCCOc1ccc2c(c1)C(Cc1ccc(Cl)c(Cl)c1)C(N1CCCC1)CC2)C1CCC1 (centres unmarked) [Example 88, Cyclobutanesulfonic acid {2-[8-(3,4-dichloro-benzyl)-7-pyrrolidin-1-yl-5,6,7,8-tetrahydronaphthalen-2-yloxy]-ethyl}-amide hydrochloride]",≤ 0.1,–
"O=S(=O)(CC1CC1)NCCOc1ccc2c(c1)C(Cc1ccc(Cl)c(Cl)c1)C(N1CCC(F)C1)CC2 (centres unmarked) [Example 134, 1-Cyclopropyl-N-[2-({8-(3,4-dichlorobenzyl)-7-[3-fluoropyrrolidin-1-yl]-5,6,7,8-tetrahydronaphthalen-2-yl}oxy)ethyl]methanesulfonamide]",≤ 1,–
"Cn1cnc(S(=O)(=O)NCCOc2ccc3c(c2)C(Cc2ccccc2)C(N2CCCC2)CC3)c1 (single isomer, unassigned; (+)) [Example 118, (+)-N-(2-(8-benzyl-7-(pyrrolidin-1-yl)-5,6,7,8-tetrahydronaphthalen-2-yloxy)ethyl)-1-methyl-1H-imidazole-4-sulfonamide hydrochloride]",–,"Ki ([1]; human GlyT1c-expressing CHO cell membranes, hydrochloride): ≤ 0.1 µM"
"Cn1cnc(S(=O)(=O)NCCOc2ccc3c(c2)C(Cc2ccccc2Cl)C(N)CC3)c1 (centres unmarked) [Example 305, 1-Methyl-1H-imidazole-4-sulfonic acid {2-[7-amino-8-(2-chloro-benzyl)-5,6,7,8-tetrahydronaphthalen-2-yloxy]-ethyl}-amide hydrochloride]",≤ 0.1,–
"Cn1cc(S(=O)(=O)NCCOc2ccc3c(c2)C(Cc2ccccc2)C(N2CCC2)CC3)cn1 (centres unmarked) [Example 324, 1-Methyl-1H-pyrazole-4-sulfonic acid [2-(7-azetidin-1-yl-8-benzyl-5,6,7,8-tetrahydronaphthalen-2-yloxy)-ethyl]amide hydrochloride]",≤ 0.01,–
"Cn1cnc(S(=O)(=O)NCCOc2ccc3c(c2)C(Cc2cccc(F)c2)C(N2CCCC2)CC3)c1 (centres unmarked) [Example 140, N-(2-{[8-(3-Fluorobenzyl)-7-(pyrrolidin-1-yl)-5,6,7,8-tetrahydronaphthalen-2-yl]oxy}ethyl)-1-methyl-1H-imidazole-4-sulfonamide hydrochloride]",≤ 0.01,–

# The next lines start with results.
"Ki [1, 3] [µM]",SMILES,further results
≤ 1,"Cc1ccc(S(=O)(=O)NCCOc2ccc3c(c2)C(Cc2cccc(Cl)c2)C(N)CC3)s1 (centres unmarked) [Example 68, 5-Methyl-thiophene-2-sulfonic acid {2-[7-amino-8-(3-chloro-benzyl)-5,6,7,8-tetrahydronaphthalen-2-yloxy]-ethyl}-amide hydrochloride]","IC50 [2, 4]: ≤ 10 µM"
≤ 0.1,"CN(C)S(=O)(=O)NCCOc1ccc2c(c1)C(Cc1ccc(Cl)c(Cl)c1)C(N)CC2 (centres unmarked) [Example 25, N′-(2-{[7-amino-8-(3,4-dichlorobenzyl)-5,6,7,8-tetrahydronaphthalen-2-yl]oxy}ethyl)-N,N-dimethylsulfuric diamide hydrochloride]","IC50 [2, 4]: ≤ 1 µM"
≤ 0.1,"CCCS(=O)(=O)NCCc1ccc2c(c1)C(Cc1cccc(Cl)c1)C(NC)CC2 (centres unmarked) [Example 309, Propane-1-sulfonic acid {2-[8-(3-chloro-benzyl)-7-methylamino-5,6,7,8-tetrahydronaphthalen-2-yl]-ethyl}-amide]",–
≤ 0.1,"O=S(=O)(CC1CC1)NCCOc1ccc2c(c1)C(Cc1cc(F)cc(Cl)c1)C(N1CCC1)CC2 (centres unmarked) [Example 159, N-(2-{[7-(Azetidin-1-yl)-8-(3-chloro-5-fluorobenzyl)-5,6,7,8-tetrahydronaphthalen-2-yl]oxy}ethyl)-1-cyclopropylmethanesulfonamide (2E)-but-2-enedioate]",–
≤ 0.1,"NC1CCc2ccc(CCCNS(=O)(=O)CC3CC3)cc2C1Cc1ccc(F)c(F)c1 (centres unmarked) [Example 204, N-{3-[7-Amino-8-(3,4-difluoro-benzyl)-5,6,7,8-tetrahydro-naphthalen-2-yl]-propyl}-C-cyclopropyl-methanesulfonamide hydrochloride]",–
≤ 0.01,"CN(CCCc1ccc2c(c1)C(Cc1cccc(F)c1)C(N)CC2)S(=O)(=O)CC1CC1 (centres unmarked) [Example 230, N-{3-[7-Amino-8-(3-fluorobenzyl)-5,6,7,8-tetrahydronaphthalen-2-yl]propyl}-1-cyclopropylN-methylmethanesulfonamide hydrochloride]",–
≤ 0.01,"CCNC1CCc2ccc(OCCNS(=O)(=O)CC3CC3)cc2C1Cc1cccc(Cl)c1 (centres unmarked) [Example 307, N-{2-[8-(3-Chloro-benzyl)-7-ethylamino-5,6,7,8-tetrahydro-naphthalen-2-yloxy]-ethyl}-C-cyclopropyl-methanesulfonamide hydrochloride]",–
≤ 0.1,"NC1CCc2ccc(OCCNS(=O)(=O)CC3CC3)cc2C1Cc1ccc(Cl)cc1 (centres unmarked) [Example 128, N-(2-{[7-Amino-8-(4-chlorobenzyl)-5,6,7,8-tetrahydronaphthalen-2-yl]oxy}ethyl)-1-cyclopropylmethanesulfonamide hydrochloride]",–
≤ 1,"NC1CCc2ccc(OCCNS(=O)(=O)CC3CC3)cc2C1Cc1ccccc1Cl (centres unmarked) [Example 295, N-{2-[7-Amino-8-(2-chloro-benzyl)-5,6,7,8-tetrahydro-naphthalen-2-yloxy]-ethyl}-C-cyclopropyl-methanesulfonamide hydrochloride]",–
≤ 1,"CCCS(=O)(=O)NCCCc1ccc2c(c1)C(Cc1ccccc1Cl)C(NCC)CC2 (centres unmarked) [Example 222, Propane-1-sulfonic acid {3-[8-(2-chloro-benzyl)-7-ethylamino-5,6,7,8-tetrahydronaphthalen-2-yl]-propyl}-amide hydrochloride]",–
≤ 0.1,"Cn1cnc(S(=O)(=O)NCc2ccc3c(c2)C(Cc2cccc(F)c2)C(N2CCC2)CC3)c1 (centres unmarked) [Example 256, N-{[7-(Azetidin-1-yl)-8-(3-fluorobenzyl)-5,6,7,8-tetrahydronaphthalen-2-yl]methyl}-1-methyl-1H-imidazole-4-sulfonamide hydrochloride]",–
≤ 0.01,"CNC1CCc2ccc(OCCNS(=O)(=O)CC3CC3)cc2C1Cc1cccc(F)c1 (centres unmarked) [Example 247, 1-Cyclopropyl-N-(2-{[8-(3-fluorobenzyl)-7-(methylamino)-5,6,7,8-tetrahydronaphthalen-2-yl]oxy}ethyl)methanesulfonamide hydrochloride]",–
≤ 0.1,"CN(CCCc1ccc2c(c1)C(Cc1ccccc1Cl)C(N)CC2)S(=O)(=O)CC1CC1 (centres unmarked) [Example 228, N-{3-[7-Amino-8-(2-chloro-benzyl)-5,6,7,8-tetrahydro-naphthalen-2-yl]-propyl}-C-cyclopropyl-N-methyl-methanesulfonamide hydrochloride]",–
≤ 1,"CCCCS(=O)(=O)NCCOc1ccc2c(c1)C(Cc1ccc(Cl)c(Cl)c1)C(N)CC2 (centres unmarked) [Example 90, Butane-1-sulfonic acid {2-[7-amino-8-(3,4-dichloro-benzyl)-5,6,7,8-tetrahydro-naphthalen-2-yloxy]-ethyl}-amide hydrochloride]",–
≤ 1,"NC1CCc2ccc(CNS(=O)(=O)C3CCC3)cc2C1Cc1ccc(F)cc1 (centres unmarked) [Example 174, N-{[7-Amino-8-(4-fluorobenzyl)-5,6,7,8-tetrahydronaphthalen-2-yl]methyl}cyclobutanesulfonamide hydrochloride]",–
